# Key:
# [1] = molecular target: EGFR del19 (Homo sapiens (Human), UniProt P00533, DEL746-750); assay: HTRF inhibitory activity against EGFR mutant enzyme (EGFR del19); assay type: biochemical; details: recombinant enzyme, 37° C. for 2 hours
# Procedure, shortened: (§1)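 Recombinant EGFR del19 or A763_Y764insFHEA was premixed with compound in 50 mM Tris pH 7.5 with 7.5 mM MgCl2 and 1 mM DTT. ATP (50 mM as printed) and biotin-peptide (0.5 mM) were added and reacted 2 h at 37 °C. The HTRF 665/615 read used streptavidin-XL665 and Eu anti-phosphotyrosine. IC50 was fitted from 7 concentrations.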
# [2] = molecular target: EGFR A763_Y764insFHEA (Homo sapiens (Human), UniProt P00533, INS763FHEA); assay: HTRF inhibitory activity against EGFR mutant enzyme (EGFR A763_Y764insFHEA); assay type: biochemical; details: recombinant enzyme, 37° C. for 2 hours
# Chain of EGFR A763_Y764insFHEA (P00533 other isoform, or with tags, fused parts or gaps del 1-694/ins FHEA behind 763 limits assumed): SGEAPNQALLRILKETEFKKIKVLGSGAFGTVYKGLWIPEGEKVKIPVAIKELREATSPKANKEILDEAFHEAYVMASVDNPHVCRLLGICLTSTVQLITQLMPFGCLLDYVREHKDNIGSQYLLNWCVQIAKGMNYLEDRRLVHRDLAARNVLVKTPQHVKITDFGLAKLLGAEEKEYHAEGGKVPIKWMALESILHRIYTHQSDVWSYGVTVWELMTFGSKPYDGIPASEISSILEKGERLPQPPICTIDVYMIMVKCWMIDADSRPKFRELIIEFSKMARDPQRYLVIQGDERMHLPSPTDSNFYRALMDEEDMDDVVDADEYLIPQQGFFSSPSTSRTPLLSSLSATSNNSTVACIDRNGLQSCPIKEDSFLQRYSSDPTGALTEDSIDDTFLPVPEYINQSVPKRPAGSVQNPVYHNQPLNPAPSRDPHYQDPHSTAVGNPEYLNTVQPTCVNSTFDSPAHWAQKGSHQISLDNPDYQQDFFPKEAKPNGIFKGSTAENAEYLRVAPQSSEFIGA
# Procedure, shortened: as §1
# [3] = molecular target: HER2 A775_G776insYVMA (Homo sapiens (Human), UniProt P04626, INS775YVMA); assay: HTRF inhibitory activity against HER2 mutant enzyme; assay type: biochemical; details: recombinant enzyme, 37° C. for 2 hours
# Chain of HER2 A775_G776insYVMA (P04626 other isoform, or with tags, fused parts or gaps del 1-675/ins YVMA behind 775 limits assumed): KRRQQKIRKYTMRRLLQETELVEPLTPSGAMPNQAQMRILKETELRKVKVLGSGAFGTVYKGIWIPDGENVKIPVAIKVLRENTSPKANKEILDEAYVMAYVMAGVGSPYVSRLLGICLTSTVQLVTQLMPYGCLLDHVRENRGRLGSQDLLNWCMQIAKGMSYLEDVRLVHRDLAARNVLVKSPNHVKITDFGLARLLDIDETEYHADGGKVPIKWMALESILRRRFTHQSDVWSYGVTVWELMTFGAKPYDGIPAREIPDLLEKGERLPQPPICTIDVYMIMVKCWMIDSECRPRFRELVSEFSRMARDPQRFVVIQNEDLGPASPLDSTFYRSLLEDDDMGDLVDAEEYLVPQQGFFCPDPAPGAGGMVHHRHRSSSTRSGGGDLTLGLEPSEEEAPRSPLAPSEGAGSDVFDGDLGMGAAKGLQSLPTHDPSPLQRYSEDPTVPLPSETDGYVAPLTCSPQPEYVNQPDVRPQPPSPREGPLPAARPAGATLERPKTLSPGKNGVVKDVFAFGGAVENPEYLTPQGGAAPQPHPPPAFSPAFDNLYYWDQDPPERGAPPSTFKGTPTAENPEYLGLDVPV
# Procedure, shortened: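 Recombinant HER2 A775_G776insYVMA preincubated with compound, then […] and biotinylated peptide ([…]) added; 2 h at 37 °C in Tris-HCl pH 7.5 buffer with MgCl2, DTT. HTRF detection (Eu anti-phosphotyrosine/streptavidin-XL665); IC50 from 7 concentrations.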
# [4] = tested on: Ba/F3 EGFR D770_N771insSVD; assay: Growth inhibition of Ba/F3 EGFR mutant cells (CellTiter-Glo); assay type: cell-based; details: Ba/F3 EGFR-D770-N771ins_SVD, 72 hours
# Procedure, shortened: (§2)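 Ba/F3 cells expressing either EGFR insertion mutant were seeded at 1,000 cells/well and dosed 24 h later at eight concentrations from 0 to 10 μM. After 72 h, viability was read by CellTiter-Glo ATP signal. IC50 (μM) was fitted from the eight-point curves.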
# [5] = tested on: Ba/F3 EGFR V769_D770insASV; assay: as above; assay type: cell-based; details: 72 hours
# Procedure, shortened: as §2
# [6] = tested on: Ba/F3 HER2 A775_G776insYVMA; assay: Growth inhibition of Ba/F3 HER2 mutant cells (CellTiter-Glo); assay type: cell-based; details: Mus musculus, BaF3, 72 hours
# Procedure, shortened: (§3)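 Ba/F3 cells carrying HER2 A775_G776insYVMA or G776delinsVC were seeded at 1,000 cells/well and dosed 24 h later at 0.01-10 μM (8 concentrations including 0). After 72 h, viability was read as cellular ATP by CellTiter-Glo luminescence, and IC50 values were calculated from the 8-point curves.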
# [7] = tested on: Ba/F3 HER2 G776delinsVC; assay: as above; assay type: cell-based; details: Mus musculus, BaF3, 72 hours
# Procedure, shortened: as §3
# Chain of EGFR del19 (P00533 other isoform, or with tags, fused parts or gaps del 1-668/del 746-750 limits assumed): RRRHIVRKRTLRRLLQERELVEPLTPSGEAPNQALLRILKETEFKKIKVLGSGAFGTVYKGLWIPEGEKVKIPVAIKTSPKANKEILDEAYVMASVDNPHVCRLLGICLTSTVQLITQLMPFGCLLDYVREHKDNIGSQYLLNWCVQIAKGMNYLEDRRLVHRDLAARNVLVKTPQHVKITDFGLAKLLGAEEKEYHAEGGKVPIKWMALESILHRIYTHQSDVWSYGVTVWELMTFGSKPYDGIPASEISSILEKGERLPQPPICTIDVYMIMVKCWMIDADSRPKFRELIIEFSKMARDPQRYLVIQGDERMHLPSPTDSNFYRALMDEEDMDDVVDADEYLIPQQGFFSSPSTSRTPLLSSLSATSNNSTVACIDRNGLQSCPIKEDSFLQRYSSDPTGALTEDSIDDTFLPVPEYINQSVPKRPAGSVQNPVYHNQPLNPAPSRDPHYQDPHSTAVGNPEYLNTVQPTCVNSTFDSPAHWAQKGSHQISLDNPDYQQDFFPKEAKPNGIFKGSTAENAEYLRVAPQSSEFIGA
IC50 [1] [nM],IC50 [2] [nM],IC50 [3] [nM],IC50 [4] [nM],IC50 [5] [nM],IC50 [6] [nM],IC50 [7] [nM],SMILES
1,3,19,10 to 30,10 to 30,10 to 30,< 10,"C=CC(=O)Nc1cc(Nc2ncc(C#N)c(Nc3cccc4c3N(C(C)=O)CC4)n2)c(OC)cc1N(C)CCN(C)C [Example 99, N-(5-((4-((1-acetylindolin-7-yl)amino)-5-cyanopyrimidin-2-yl)amino)-2-((2-(dimethylamino)ethyl)(methyl)amino)-4-methoxyphenyl)acrylamide]"
3,9,225,10 to 30,10 to 30,> 100,< 10,"C=CC(=O)Nc1cc(Nc2nccc(Nc3cccc4c3N(C(C)=O)CC4)n2)c(OC)cc1N(C)CCN(C)C [Example 100, N-(5-((4-((1-acetylindolin-7-yl)amino)pyrimidin-2-yl)amino)-2-((2-(dimethylamino)ethyl)(methyl)amino)-4-methoxyphenyl)acrylamide]"

# Reference: patent US20240343694A1, “PYRIMIDINE DERIVATIVE, METHOD FOR PREPARING SAME, AND PHARMACEUTICAL COMPOSITION FOR PREVENTING OR TREATING CANCER COMPRISING SAME AS ACTIVE INGREDIENT” (KOREA RESERARCH INSTITUTE OF CHEMICAL TECHNOLOGY, priority 2021, published 2024)
